The values that follow come from US20250223284A1, “REVERSIBLE DPP1 INHIBITORS AND USES THEREOF” (Insmed Incorporated, priority 2023, published 2025).

Sequence of human DPP1 enzyme (P53634 25-134): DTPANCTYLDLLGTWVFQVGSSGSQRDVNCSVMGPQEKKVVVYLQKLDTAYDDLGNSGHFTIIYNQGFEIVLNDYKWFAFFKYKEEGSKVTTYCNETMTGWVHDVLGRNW
Sequence of human DPP1 enzyme (P53634 231-394): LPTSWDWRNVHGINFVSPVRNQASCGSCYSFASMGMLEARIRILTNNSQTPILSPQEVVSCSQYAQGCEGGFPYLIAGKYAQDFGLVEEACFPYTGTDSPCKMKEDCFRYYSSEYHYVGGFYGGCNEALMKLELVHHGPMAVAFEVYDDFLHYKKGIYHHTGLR
Sequence of human DPP1 enzyme (P53634 395-463): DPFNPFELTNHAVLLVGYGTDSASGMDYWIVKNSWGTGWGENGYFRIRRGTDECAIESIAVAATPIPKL

For this assay, the target named is human DPP1 enzyme (Homo sapiens (Human), UniProt P53634). The assay can be described thus: Human DPP1 Enzyme IC50 Assay. The format is biochemical. The following applies: recombinant human DPP1 activated with cathepsin L, H-Gly-Arg-AMC substrate, 10 min pre-incubation at 37° C., MES pH 6.0. The method, then:
Recombinant human DPP1 enzyme (R&D Systems; Minneapolis, MN) was first proteolytically processed into its mature form using recombinant human cathepsin L (R&D Systems) in a buffer consisting of 20 mM citric acid pH 4.5, 150 mM NaCl, 1 mM EDTA and 10 mM DTT. Test articles were applied to activated human DPP1 enzyme in Assay Buffer (25 mM MES pH 6.0, 50 mM NaCl, 5 mM DTT) in a total reaction volume of 125 μL. 25 μL of compound in Assay Buffer plus 5% DMSO was first added to 50 μL of activated human DPP1 enzyme at a concentration of 1 ng/μL and allowed to pre-incubate for 10 minutes at 37° C. after which 50 μL of 1000 μM H-Gly-Arg-AMC substrate (Bachem; St. Torrance, CA) was added, giving final substrate concentration of 400 µM and a final DMSO concentration of 1%. Substrate cleavage was measured for 90 minutes at 37° C., with fluorescence at Excitation/Emission 350/450 nm measured every 5 minutes. DPP1 concentration was interpolated based on its activity relative to a standard curve of activated human recombinant DPP1 enzyme. IC50 values for each compound were calculated via the XLFit (IDBS Version 5.3.1.3) Add-On to Microsoft Excel using the four parameter fit equation y={A+[(B−A)]/[1+((C/x)^D)]}, which appears as equation number 205 (4 Parameter Logistic Model or Sigmoidal Dose-Response Model) in XLFit. Default constraints were used for each Parameter. IC50 was defined as the compound concentration at which 50% of enzyme activity was inhibited when compared to the no-compound control.
Consider `Cn1c(=O)oc2ccc(-c3ccc(C[C@@H](C#N)NC(=O)[C@H]4CCCCCNC4)cc3)cc21`, for which the IC50 came out at 49.8 nM. Turning to `Cn1c(=O)oc2ccc(-c3ccc(C[C@@H](C#N)NC(=O)[C@@H]4CNC[C@@](C)(O)CO4)c(F)c3)cc21` (single isomer, unassigned), the IC50 amounted to 14.1 ± 3 nM.

Consider `Cn1c(=O)oc2ccc(-c3ccc(C[C@@H](C#N)NC(=O)[C@@H]4CNC[C@](C)(O)CO4)c(F)c3)cc21` (single isomer, unassigned), for which the IC50 is 13.6 ± 2.1 nM. Take `Cn1c(=O)oc2ccc(-c3ccc(C[C@@H](C#N)NC(=O)[C@@H]4CNCC(O)(C(F)(F)F)CO4)cc3)cc21` (single isomer, unassigned): the IC50 came out at 3750 nM. For `C=C[C@]1(O)CNC[C@@H](C(=O)N[C@H](C#N)Cc2ccc(-c3ccc4oc(=O)n(C)c4c3)cc2)OC1` (single isomer, unassigned), the IC50 was found to be 1470 nM.

In the case of `Cn1c(=O)oc2ccc(-c3ccc(C[C@@H](C#N)NC(=O)[C@@H]4CNC[C@](O)(CO)CO4)cc3)cc21` (single isomer, unassigned), the IC50 stood at 781 nM. In the case of `C=CCC1(O)CNC[C@@H](C(=O)N[C@H](C#N)Cc2ccc(-c3ccc4oc(=O)n(C)c4c3)cc2)OC1` (single isomer, unassigned) it was 1020 nM; in that of `CCC[C@]1(O)CNC[C@@H](C(=O)N[C@H](C#N)Cc2ccc(-c3ccc4oc(=O)n(C)c4c3)cc2)OC1` (single isomer, unassigned), greater than 5000 nM. With `CCC[C@@]1(O)CNC[C@@H](C(=O)N[C@H](C#N)Cc2ccc(-c3ccc4oc(=O)n(C)c4c3)cc2)OC1` (single isomer, unassigned), the IC50 worked out at 769 nM. For the compound `CC(C)CO[C@@]1(C)CNC[C@@H](C(=O)N[C@H](C#N)Cc2ccc(-c3ccc4oc(=O)n(C)c4c3)cc2)OC1` (single isomer, unassigned), the IC50 is greater than 5000 nM. Take `CC(C)CO[C@]1(C)CNC[C@@H](C(=O)N[C@H](C#N)Cc2ccc(-c3ccc4oc(=O)n(C)c4c3)cc2)OC1` (single isomer, unassigned): the IC50 was greater than 5000 nM.

`Cn1c(=O)oc2ccc(-c3ccc(C[C@@H](C#N)NC(=O)[C@@H]4CNCC(O)(Cc5ccccn5)CO4)cc3)cc21` (single isomer, unassigned): the IC50 is greater than 5000 nM. In the case of `Cn1c(=O)oc2ccc(-c3ccc(C[C@@H](C#N)NC(=O)[C@@H]4CNC[C@@](O)(CO)CO4)cc3)cc21` (single isomer, unassigned), the IC50 came to 234 nM.

As for `Cn1c(=O)oc2ccc(-c3ccc(C[C@@H](C#N)NC(=O)[C@@H]4CNC[C@]5(CCO5)CO4)cc3)cc21` (single isomer, unassigned), the IC50 worked out at 729 nM. Turning to `Cn1c(=O)oc2ccc(-c3ccc(C[C@@H](C#N)NC(=O)[C@@H]4CNCC5(CCCO5)CO4)cc3)cc21` (single isomer, unassigned), the IC50 is 95.9 ± 4.4 nM. For the compound `Cn1c(=O)oc2ccc(-c3ccc(C[C@@H](C#N)NC(=O)C4CCCC(O)CNC4)cc3)cc21` (single isomer, unassigned), the IC50 was found to be 230 nM. For `Cn1c(=O)oc2ccc(-c3ccc(C[C@@H](C#N)NC(=O)[C@@H]4CNC[C@@H](O)CCO4)cc3)cc21` (single isomer, unassigned), the IC50 came to 198 nM.

On to `Cn1c(=O)oc2ccc(-c3ccc(C[C@@H](C#N)NC(=O)[C@@H]4CNCC[C@H](O)CO4)cc3)cc21` (single isomer, unassigned), for which the IC50 is 67.4 nM.

On to `Cn1c(=O)oc2ccc(-c3ccc(C[C@@H](C#N)NC(=O)[C@@H]4CNC[C@@](C)(O)CCO4)cc3)cc21` (single isomer, unassigned), for which the IC50 stood at 243 nM. As to `Cn1c(=O)oc2ccc(-c3ccc(C[C@@H](C#N)NC(=O)[C@@H]4CNC[C@](C)(O)CCO4)cc3)cc21` (single isomer, unassigned), the IC50 came to 23.2 ± 2 nM. On to `CCO[C@H]1CCO[C@H](C(=O)N[C@H](C#N)Cc2ccc(-c3ccc4oc(=O)n(C)c4c3)cc2)CNC1` (single isomer, unassigned), for which the IC50 is greater than 5000 nM.

For `CCO[C@H]1CCNC[C@@H](C(=O)N[C@H](C#N)Cc2ccc(-c3ccc4oc(=O)n(C)c4c3)cc2)OC1` (single isomer, unassigned), the IC50 is 457 nM.

Consider `Cn1c(=O)oc2ccc(-c3ccc(C[C@@H](C#N)NC(=O)[C@@H]4CNCCC(C)(O)CO4)cc3)cc21` (single isomer, unassigned), for which the IC50 is 2240 nM. On to `CCO[C@@H]1CCO[C@H](C(=O)N[C@H](C#N)Cc2ccc(-c3ccc4oc(=O)n(C)c4c3)cc2)CNC1` (single isomer, unassigned), for which the IC50 amounted to 27 nM.

On to `CO[C@H]1CCO[C@H](C(=O)N[C@H](C#N)Cc2ccc(-c3ccc4oc(=O)n(C)c4c3)cc2)CNC1` (single isomer, unassigned), for which the IC50 was found to be 1140 nM.

Regarding `Cn1c(=O)oc2ccc(-c3ccc(C[C@@H](C#N)NC(=O)[C@@H]4CNCCCCO4)cc3)cc21` (single isomer, unassigned) [drawing 513], the IC50 was 25.1 ± 3.1 nM.

For `Cn1c(=O)oc2ccc(-c3ccc(C[C@@H](C#N)NC(=O)[C@@H]4CNC[C@](C)(O)CO4)cc3)cc21` (single isomer, unassigned) [drawing 514], the IC50 worked out at 314 ± 201 nM. As for `CC[C@@]1(O)CNC[C@@H](C(=O)N[C@H](C#N)Cc2ccc(-c3ccc4oc(=O)n(C)c4c3)cc2)OC1` (single isomer, unassigned) [drawing 518], the IC50 turned out to be 25.1 nM. On to `CC[C@]1(O)CNC[C@@H](C(=O)N[C@H](C#N)Cc2ccc(-c3ccc4oc(=O)n(C)c4c3)cc2)OC1` (single isomer, unassigned) [drawing 519], for which the IC50 stood at 2740 nM. For `CC(C)[C@]1(O)CNC[C@@H](C(=O)N[C@H](C#N)Cc2ccc(-c3ccc4oc(=O)n(C)c4c3)cc2)OC1` (single isomer, unassigned) [drawing 520], the IC50 was greater than 5000 nM.

With `Cn1c(=O)oc2ccc(-c3ccc(C[C@@H](C#N)NC(=O)[C@@H]4CNCC5(CCO5)CO4)cc3)cc21` (single isomer, unassigned) [drawing 530], the IC50 stood at 4.2 ± 0.8 nM. As for `Cn1c(=O)oc2ccc(-c3ccc(C[C@@H](C#N)NC(=O)[C@@H]4CNC[C@@]5(CCO5)CO4)cc3)cc21` (single isomer, unassigned) [drawing 532], the IC50 amounted to 3.04 ± 0.8 nM. Take `Cn1c(=O)oc2ccc(-c3ccc(C[C@@H](C#N)NC(=O)[C@@H]4CNCCCCO4)cc3)cc21` (single isomer, unassigned) [drawing 535]: the IC50 turned out to be 22.3 ± 2 nM. With `CN1CC2(C1)OC(=O)c1ccc(-c3ccc(C[C@@H](C#N)NC(=O)[C@@H]4CNCCCCO4)cc3)cc12` (single isomer, unassigned) [drawing 536], the IC50 was determined as 30.9 ± 2 nM.

As for `CCO[C@@H]1CCNC[C@@H](C(=O)N[C@H](C#N)Cc2ccc(-c3ccc4oc(=O)n(C)c4c3)cc2)OC1` (single isomer, unassigned) [drawing 544], the IC50 came out at 4.91 ± 0.9 nM. The figure for `CO[C@H]1CCNC[C@@H](C(=O)N[C@H](C#N)Cc2ccc(-c3ccc4oc(=O)n(C)c4c3)cc2)OC1` (single isomer, unassigned) [drawing 547] is 74.7 nM. For the compound `Cn1c(=O)oc2ccc(-c3ccc(C[C@@H](C#N)NC(=O)C4CCCCCNC4)c(F)c3)cc21` (single isomer, unassigned) [drawing 548], the IC50 was found to be 15.8 ± 6.8 nM.

`Cn1c(=O)oc2ccc(-c3ccc(C[C@@H](C#N)NC(=O)[C@H]4CCCCCNC4)c(F)c3)cc21` (single isomer, unassigned) [drawing 549]: the IC50 was determined as 140 ± 59.3 nM. In the case of `CCO[C@@]1(C)CNC[C@@H](C(=O)N[C@H](C#N)Cc2ccc(-c3ccc4oc(=O)n(C)c4c3)cc2)OC1` (single isomer, unassigned) [drawing 551] it was greater than 5000 nM. With `CCO[C@]1(C)CNC[C@@H](C(=O)N[C@H](C#N)Cc2ccc(-c3ccc4oc(=O)n(C)c4c3)cc2)OC1` (single isomer, unassigned) [drawing 552], the IC50 was determined as 1680 nM. On to `CO[C@@H]1CCO[C@H](C(=O)N[C@H](C#N)Cc2ccc(-c3ccc4oc(=O)n(C)c4c3)cc2)CNC1` (single isomer, unassigned) [drawing 553], for which the IC50 amounted to 6.82 ± 0.5 nM. For the compound `CO[C@H]1CCNC[C@@H](C(=O)N[C@H](C#N)Cc2ccc(-c3ccc4oc(=O)n(C)c4c3)cc2)OC1` (single isomer, unassigned) [drawing 554], the IC50 amounted to 17.4 ± 6 nM. In the case of `Cn1c(=O)oc2ccc(-c3ccc(C[C@@H](C#N)NC(=O)C4CCCCCNC4)cc3)cc21` (stereo partly shown) [I-A] it was 72.6 nM; in that of `Cn1c(=O)oc2ccc(-c3ccc(C[C@@H](C#N)NC(=O)C4CCCCCNC4)cc3)cc21` (stereo partly shown) [drawing 511], 85.6 ± 19.5 nM. The figure for `Cn1c(=O)oc2ccc(-c3ccc(C[C@@H](C#N)NC(=O)C4CCCCCNC4)cc3)cc21` (stereo partly shown) [drawing 512] is 61.3 ± 9.9 nM; for `Cn1c(=O)oc2ccc(-c3ccc(C[C@@H](C#N)NC(=O)[C@@H]4CCCCCNC4)cc3)cc21` [drawing 550] it is 603 nM.
